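Five concentrations, 48 hours, 96-well plates. TGI denotes the concentration required for complete inhibition of growth.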 Where a SMILES comes first, the peptide text is derived from it. The star is where a group is joined. Boc = CC(C)(C)OC(=O)*
Key:
Test in all cases: NCI anticancer screen, dose series, 48 h
A498 renal = test system: A498 renal
ACHN renal = test system: ACHN renal
CAKI-1 renal = test system: CAKI-1 renal
COLO 205 colon = test system: COLO 205 colon
DU-145 prostate = test system: DU-145 prostate
HS 578T breast = test system: HS 578T breast
HT29 colon = test system: HT29 colon
MCF7 breast = test system: MCF7 breast
NCI-H460 lung = test system: NCI-H460 lung
OVCAR-4 ovarian = test system: OVCAR-4 ovarian
RPMI-8226 leukemia = test system: RPMI-8226 leukemia
SF-268 CNS = test system: SF-268 CNS
SNB-75 CNS = test system: SNB-75 CNS
T-47D breast = test system: T-47D breast
HOP-62 NSCLC = test system: HOP-62 NSCLC
MOLT-4 leukemia = test system: MOLT-4 leukemia
OVCAR-3 ovarian = test system: OVCAR-3 ovarian
OVCAR-5 ovarian = test system: OVCAR-5 ovarian
SK-MEL-2 melanoma = test system: SK-MEL-2 melanoma

Compound	TGI (A498 renal) [µM]	TGI (ACHN renal) [µM]	TGI (CAKI-1 renal) [µM]	TGI (COLO 205 colon) [µM]	TGI (DU-145 prostate) [µM]	TGI (HS 578T breast) [µM]	TGI (HT29 colon) [µM]	TGI (MCF7 breast) [µM]	TGI (NCI-H460 lung) [µM]	TGI (OVCAR-4 ovarian) [µM]	TGI (RPMI-8226 leukemia) [µM]	TGI (SF-268 CNS) [µM]	TGI (SNB-75 CNS) [µM]	TGI (T-47D breast) [µM]	TGI (HOP-62 NSCLC) [µM]	TGI (MOLT-4 leukemia) [µM]	TGI (OVCAR-3 ovarian) [µM]	TGI (OVCAR-5 ovarian) [µM]	TGI (SK-MEL-2 melanoma) [µM]
COc1cc(OC)cc(-n2c(N)c(-c3nc4ccccc4s3)c3ccc([N+](=O)[O-])cc3c2=O)c1	76.7	41.7	> 100	> 100	> 100	> 100	> 100	> 100	> 100	78.9	> 100	> 100	> 100	> 100	–	–	–	–	–
CN(C)Cc1cc(C(=O)/C=C/c2ccc(Br)cc2)cc(CN(C)C)c1O	30.4	15	6.34	3.28	25.1	45.1	12.5	–	21.9	28.8	26.8	50.3	35.3	37.9	17.2	19.6	17	34	–
COc1cc(/C=C/C=C2\CCC/C(=C\C=C\c3ccc(O)c(OC)c3)C2=O)ccc1O	–	39	34.2	71.5	> 100	> 100	31.1	36	57.7	> 100	28.5	40.4	> 100	36.7	52.7	10.4	> 100	79.5	87.5
CCOC(=O)CCC(NC(=O)c1ccc(Nc2cnc3cc(C(F)(F)F)ccc3n2)cc1)C(=O)OCC (centres undefined)	–	> 100	47	> 100	> 100	47.7	> 100	> 31.6	> 100	> 100	> 100	> 78.4	5.91	> 100	34.7	> 100	> 100	> 100	> 100
CC(C)(C)OC(=O)NNC(=O)C1Cc2ccccc2OC1=O (centres undefined)	–	> 100	> 100	–	> 100	> 100	> 100	–	> 100	–	> 100	> 100	–	–	> 100	> 100	> 100	> 100	> 100
CCc1cccc(CC)c1Nc1nc2c(s1)C(=O)c1ccccc1C2=O	–	32	30	49.6	45.3	71.4	–	52	34.9	–	> 100	41.7	25.4	> 100	30.2	> 100	34	39.7	39.8
COc1cc(/C=C2\N=C(c3ccccc3)N(c3nc4cc(C)c(C)cc4s3)C2=O)cc(OC)c1OC	–	83.9	> 100	> 100	> 100	98	48.6	43	> 100	> 100	> 100	> 100	60	> 100	66.6	30.3	49.1	84.2	> 100
COCOc1cc(OC)c(Br)cc1C/C(=N/O)C(=O)OC	–	> 100	> 100	> 100	> 100	57.3	> 100	> 100	> 100	> 100	–	> 100	59.7	70.3	> 100	> 100	> 100	> 100	> 100
CC(=O)OCC1OC(O[C@@H]2C[C@H]3C(C)(C)[C@H](OC(C)=O)CC[C@]3(C)[C@H]3CC[C@]4(C)C(=CC[C@H]4[C@@H](C)C[C@@H](O)[C@H](O)C(C)(C)O)[C@@]32C)C(O)C(O)C1O (some centres undefined)	34	30.4	27.3	27.7	32.1	–	32.5	33.2	31.2	29.8	30.2	29.3	36.5	32	29.3	31.8	28.7	27.1	31.1
C/C(=N/NC(=S)N(C)CCc1ccccn1)c1cnccn1	> 100	3.51	10.5	21.8	> 32	53.9	11.9	30.6	13	5.93	26.1	14.9	18.4	–	9.62	> 71.1	19	22	26.9
CC(NC1=NCCO1)c1cccs1 (centres undefined)	> 100	> 100	–	35.9	> 100	> 100	42.6	55.9	> 100	> 100	> 100	69.9	> 100	> 100	66.5	> 100	–	> 100	–
COc1cc(C2=C(C)[C@@H]3CN(CC=C3c3ccc(Cl)cc3)C2)c(S(=O)(=O)O)cc1OC	–	> 100	> 100	> 100	> 100	> 100	> 100	–	–	> 100	> 100	> 100	> 100	> 100	> 100	> 100	> 100	> 100	> 100
O=C1CCc2nc3ncccc3cc2C1	> 100	> 100	> 100	> 100	–	–	–	–	> 100	> 100	> 100	> 100	> 100	> 100	> 100	> 100	> 100	> 100	> 100
CN(C)CCn1c(=O)oc2cc(C(=O)CN3CCOCC3)ccc21	–	> 100	> 100	> 100	> 100	> 100	> 100	> 100	> 100	–	> 100	> 100	> 100	–	> 100	> 100	> 100	> 100	> 100
Cc1ccc(C(=O)OC(C)C)cc1N=NN(C)C	–	> 100	> 100	> 100	> 100	> 100	> 100	> 100	> 100	> 100	> 100	> 100	–	> 100	> 100	> 100	> 100	> 100	> 100
CCCC(=O)OCC1(CO)C/C(=C/CC(C(C)C)C(C)C)C(=O)O1 (centres undefined)	> 100	> 100	> 100	> 100	> 100	> 100	> 100	> 100	> 100	> 100	–	> 100	> 100	> 100	> 100	–	> 100	> 100	> 100
Cc1cc(C)c(S(=O)(=O)N(CCCCCCN)OCCCN)c(C)c1	–	30.9	–	32.3	31.3	30.2	30	37.3	31.6	46.2	> 100	36.3	22.8	37.4	46	34.4	46	40.1	36
COC(=O)/C(=N\N)C(C(=O)C(=O)Nc1cccc([N+](=O)[O-])c1)c1nc2ccc(C(=O)c3ccccc3)cc2[nH]c1=O (centres undefined)	–	> 100	> 100	> 100	> 100	> 100	> 100	> 100	> 100	> 100	–	> 100	> 100	–	> 100	89.8	> 100	> 100	> 100
Brc1cccc(Nc2ncnc3sc4c(c23)CCC(Nc2cccc(Br)c2)C4)c1 (centres undefined)	–	> 100	> 100	> 100	> 100	> 100	> 100	> 100	> 100	> 100	–	> 100	> 100	> 100	> 100	> 100	> 100	> 100	> 100
COc1ccc(/C=N/NC(=O)c2ccccc2Nc2ccccc2C(=O)N/N=C/c2ccc(OC)cc2)cc1	> 100	> 100	> 100	> 100	> 100	–	> 100	> 100	> 100	> 100	> 100	> 100	> 100	> 100	> 100	> 100	> 100	> 100	> 100
COC(=O)C(Cc1c[nH]c2ccccc12)NC(=O)C(Cc1c[nH]c2ccccc12)NC(=O)C(Cc1c[nH]c2ccccc12)NC(=O)OC(C)(C)C (stereo not drawn) (Boc-Trp-Trp-Trp-OMe; configuration not given here)	> 100	32.5	–	42.7	–	48.4	35.9	–	36	–	58.6	–	42	29.4	32.7	39.9	–	32	35.8
Cc1ccc(/C=N/Nc2cc(C)c3ccccc3n2)s1	–	45.4	37	> 100	–	> 100	18.7	39.6	–	> 100	29.1	> 100	> 100	> 100	30.8	45.1	7.93	37.4	> 100
CC(C)(O)/C=C\P(C)(=O)c1ccccc1 (centres undefined)	–	> 100	> 100	> 100	> 100	> 100	> 100	> 100	> 100	> 100	> 100	> 100	> 100	> 100	> 100	–	> 100	> 100	> 100
CC(=O)/C=C(/C=N/O)c1ccccc1	–	> 100	> 100	> 100	–	> 100	> 100	> 100	> 100	> 100	> 100	> 100	> 100	> 100	> 100	> 100	> 100	> 100	> 100
O=S(Nc1ccccc1)c1ccc(-c2ccccc2)cc1 (centres undefined)	–	> 100	–	> 100	> 100	> 100	> 100	> 100	> 100	> 100	> 100	> 100	–	> 100	> 100	> 100	> 100	> 100	–
NC(N)=NCc1ccc2c(c1)OCO2	> 100	> 100	> 100	–	> 100	> 100	> 100	–	> 100	> 100	> 100	> 100	> 100	> 100	> 100	> 100	> 100	> 100	> 100
N#C/C(=C\c1ccc(F)cc1)c1nc2ccccc2c(=O)[nH]1	–	> 100	> 100	> 100	> 100	> 100	> 100	> 100	> 100	> 100	> 100	> 100	74.5	> 100	> 100	> 100	–	> 100	> 100

Source: PubChem BioAssay (NCI)
